Target: T1, chimeric human H3 receptor (Homo sapiens, UniProt Q9Y5N1, E19D)
T1 construct: made in house; host or cells: Sf9 insect cells (baculovirus infection); P2 membrane preparation
Assay: Chimeric human H3 receptor screening GTP binding assay (inhibition of histamine-stimulated GTP-gamma35S binding, Example 8)
Assay type: biochemical
Settings: 1 h; "+" in Ki of Table II; assay of Example 8; read-out: percent inhibition of agonist-induced GTP-gammaS binding to H3
Procedure, shortened: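 Data are percent inhibition of the 1 μM histamine-stimulated GTP-gamma35S (125 pM) binding, after non-specific binding (10 uM GTP-gammaS) is subtracted. Test compound at 4 μM. Incubation was 60 min at room temperature with Sf9 membranes bearing receptor plus G-protein subunits, buffer pH 7.4 with 10 μM GDP, and filtration read-out.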

T1 sequence (Q9Y5N1 with tags, fused parts or gaps E19D): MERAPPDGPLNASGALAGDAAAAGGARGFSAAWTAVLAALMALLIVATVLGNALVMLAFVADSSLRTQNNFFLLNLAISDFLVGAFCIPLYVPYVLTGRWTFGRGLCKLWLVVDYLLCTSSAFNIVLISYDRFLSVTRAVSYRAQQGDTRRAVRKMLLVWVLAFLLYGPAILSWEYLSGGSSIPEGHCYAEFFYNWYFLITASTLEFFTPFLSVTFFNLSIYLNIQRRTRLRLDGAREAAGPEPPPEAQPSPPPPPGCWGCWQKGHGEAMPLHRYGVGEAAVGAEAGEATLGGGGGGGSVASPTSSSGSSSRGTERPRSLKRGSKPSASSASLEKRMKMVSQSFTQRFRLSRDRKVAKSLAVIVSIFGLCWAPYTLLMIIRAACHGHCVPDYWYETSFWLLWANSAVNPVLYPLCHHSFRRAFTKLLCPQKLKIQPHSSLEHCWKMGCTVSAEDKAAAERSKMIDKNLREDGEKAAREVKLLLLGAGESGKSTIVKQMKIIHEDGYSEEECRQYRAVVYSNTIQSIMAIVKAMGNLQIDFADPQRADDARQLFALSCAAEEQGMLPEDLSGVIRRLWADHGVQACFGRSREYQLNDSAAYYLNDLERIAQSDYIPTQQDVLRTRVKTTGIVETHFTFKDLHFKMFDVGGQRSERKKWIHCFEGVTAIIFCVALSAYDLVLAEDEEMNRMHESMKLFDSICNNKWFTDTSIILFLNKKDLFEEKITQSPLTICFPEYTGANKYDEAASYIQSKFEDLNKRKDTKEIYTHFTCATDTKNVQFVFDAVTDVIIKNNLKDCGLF

inhibition at 4 µM [%]	Structure (SMILES)
> 90	CCOc1ccccc1/C=C/C(=O)N1CCN(CC(=O)N2CCN(C3CCC3)CC2)CC1 [Compound 523, 1-cyclobutyl-4-({4-[(2E)-3-(2-ethoxyphenyl)prop-2-enoyl]piperazin-1-yl}acetyl)piperazine]
> 90	O=C(C=Cc1ccccc1F)N1CCN(CC(=O)N2CCN(C3CCC3)CC2)CC1 [Compound 524, 1-cyctobutyl-4-({4-[(2E)-3-(2-fluorophenyl)prop-2-enoyl]piperazin-1-yl}acetyl)piperazine]
> 90	COc1ccccc1/C=C/C(=O)N1CCN(CC(=O)N2CCN(C3CCC3)CC2)CC1 [Compound 525, 1-cyclobutyl-4-({4-[(2E)-3-(2-methoxyphenyl)prop-2-enoyl]piperazin-1-yl}acetyl)piperazine]
> 90	Cc1ccccc1/C=C/C(=O)N1CCN(CC(=O)N2CCN(C3CCC3)CC2)CC1 [Compound 526, 1-cyclobutyl-4-({4-[(2E)-3-(2-methylphenyl)prop-2-enoyl]piperazin-1-yl}acetyl)piperazine]
> 90	O=C(/C=C/c1ccc(Cl)c(Cl)c1)N1CCN(CC(=O)N2CCN(C3CCC3)CC2)CC1 [Compound 527, 1-cyclobutyl-4-({4-[(2E)-3-(3,4-dichlorophenyl)prop-2-enoyl]piperazin-1-yl}acetyl)piperazine]
> 90	COc1ccc(/C=C/C(=O)N2CCN(CC(=O)N3CCN(C4CCC4)CC3)CC2)cc1OC [Compound 528, 1-cyclobutyl-4-({4-[(2E)-3-(3,4-dimethoxyphenyl)prop-2-enoyl]piperazin-1-yl}acetyl)piperazine]
> 90	O=C(/C=C/c1ccc(F)cc1)N1CCN(CC(=O)N2CCN(C3CCC3)CC2)CC1 [Compound 529, 1-cyclobutyl-4-({4-[(2E)-3-(4-fluorophenyl)prop-2-enoyl]piperazin-1-yl}acetyl)piperazine]
> 90	COc1ccc(/C=C/C(=O)N2CCN(CC(=O)N3CCN(C4CCC4)CC3)CC2)cc1 [Compound 530, 1-cyclobutyl-4-({4-[(2E)-3-(4-methoxyphenyl)prop-2-enoyl]piperazin-1-yl}acetyl)piperazine]
> 90	O=C(/C=C/c1ccc(OCc2ccc(F)cc2)cc1)N1CCN(CC(=O)N2CCN(C3CCC3)CC2)CC1 [Compound 531, 1-cyclobutyl-4-({4-[(2E)-3-{4-[(4-fluorobenzyl)oxy]phenyl}prop-2-enoyl]piperazin-1-yl}acetyl)piperazine]
> 90	O=C(/C=C/c1ccccc1)N1CCN(CC(=O)N2CCN(C3CCC3)CC2)CC1 [Compound 532, 1-cyclobutyl-4-({4-[(2E)-3-phenylprop-2-enoyl]piperazin-1-yl}acetyl)piperazine]
> 90	COc1ncccc1C(=O)N1CCN(CC(=O)N2CCN(C3CCC3)CC2)CC1 [Compound 537, 1-cyclobutyl-4-({4-[(2-methoxypyridin-3-yl)carbonyl]piperazin-1-yl}acetyl)piperazine]
> 90	O=C(CN1CCN(C(=O)c2cccnc2Oc2ccccc2)CC1)N1CCN(C2CCC2)CC1 [Compound 542, 1-cyclobutyl-4-({4-[(2-phenoxypyridin-3-yl)carbonyl]piperazin-1-yl}acetyl)piperazine]
> 90	O=C(CN1CCN(C(=O)c2csc(-c3ccncc3)n2)CC1)N1CCN(C2CCC2)CC1 [Compound 543, 1-cyclobutyl-4-({4-[(2-pyridin-4-yl-1,3-thiazol-4-yl)carbonyl]piperazin-1-yl}acetyl)piperazine]
> 90	CCOc1ccsc1C(=O)N1CCN(CC(=O)N2CCN(C3CCC3)CC2)CC1 [Compound 549, 1-cyclobutyl-4-({4-[(3-ethoxy-2-thienyl)carbonyl]piperazin-1-yl}acetyl)piperazine]
> 90	Cc1ccsc1C(=O)N1CCN(CC(=O)N2CCN(C3CCC3)CC2)CC1 [Compound 553, 1-cyclobutyl-4-({4-[(3-methyl-2-thienyl)carbonyl]piperazin-1-yl}acetyl)piperazine]

Further lines, the compound ahead of its results:

Structure (SMILES)	inhibition at 4 µM [%]
COc1cc(OC)c(OC)cc1/C=C/C(=O)N1CCN(CC(=O)N2CCN(C3CCC3)CC2)CC1 [Compound 518, 1-cyclobutyl-4-({4-[(2E)-3-(2,4,5-trimethoxyphenyl)prop-2-enoyl]piperazin-1-yl}acetyl)piperazine]	> 90
O=C(/C=C/c1ccc(Cl)cc1Cl)N1CCN(CC(=O)N2CCN(C3CCC3)CC2)CC1 [Compound 519, 1-cyclobutyl-4-({4-[(2E)-3-(2,4-dichlorophenyl)prop-2-enoyl]piperazin-1-yl}acetyl)piperazine]	> 90
COc1ccc(/C=C/C(=O)N2CCN(CC(=O)N3CCN(C4CCC4)CC3)CC2)c(OC)c1 [Compound 520, 1-cyclobutyl-4-({4-[(2E)-3-(2,4-dimethoxyphenyl)prop-2-enoyl]piperazin-1-yl}acetyl)piperazine]	> 90
COc1ccc(OC)c(/C=C/C(=O)N2CCN(CC(=O)N3CCN(C4CCC4)CC3)CC2)c1 [Compound 521, 1-cyclobutyl-4-({4-[(2E)-3-(2,5-dimethoxyphenyl)prop-2-enoyl]piperazin-1-yl}acetyl)piperazine]	> 90
O=C(/C=C/c1c(Cl)cccc1Cl)N1CCN(CC(=O)N2CCN(C3CCC3)CC2)CC1 [Compound 522, 1-cyclobutyl-4-({4-[(2E)-3-(2,6-dichlorophenyl)prop-2-enoyl]piperazin-1-yl}acetyl)piperazine]	> 90
CCOc1ccccc1CC(=O)N1CCN(CC(=O)N2CCN(C3CCC3)CC2)CC1 [Compound 533, 1-cyclobutyl-4-({4-[(2-ethoxyphenyl)acetyl]piperazin-1-yl}acetyl)piperazine]	> 90
O=C(Cc1ccccc1F)N1CCN(CC(=O)N2CCN(C3CCC3)CC2)CC1 [Compound 534, 1-cyclobutyl-4-({4-[(2-fluorophenyl)acetyl]piperazin-1-yl}acetyl)piperazine]	> 90
COc1ccccc1OCC(=O)N1CCN(CC(=O)N2CCN(C3CCC3)CC2)CC1 [Compound 535, 1-cyclobutyl-4-({4-[(2-methoxyphenoxy)acetyl]piperazin-1-yl}acetyl)piperazine]	> 90
Cc1ccccc1OCC(=O)N1CCN(CC(=O)N2CCN(C3CCC3)CC2)CC1 [Compound 538, 1-cyclobutyl-4-({4-[(2-methylphenoxy)acetyl]piperazin-1-yl}acetyl)piperazine]	> 90
Cc1ccccc1CC(=O)N1CCN(CC(=O)N2CCN(C3CCC3)CC2)CC1 [Compound 539, 1-cyclobutyl-4-({4-[(2-methylphenyl)acetyl]piperazin-1-yl}acetyl)piperazine]	> 90
O=C(COc1ccc2ccccc2c1)N1CCN(CC(=O)N2CCN(C3CCC3)CC2)CC1 [Compound 540, 1-cyclobutyl-4-({4-[(2-naphthyloxy)acetyl]piperazin-1-yl}acetyl)piperazine]	> 90
COc1cc(CC(=O)N2CCN(CC(=O)N3CCN(C4CCC4)CC3)CC2)cc(OC)c1OC [Compound 544, 1-cyclobutyl-4-({4-[(3,4,5-trimethoxyphenyl)acetyl]piperazin-1-yl}acetyl)piperazine]	> 90
O=C(COc1ccc(Cl)c(Cl)c1)N1CCN(CC(=O)N2CCN(C3CCC3)CC2)CC1 [Compound 545, 1-cyclobutyl-4-({4-[(3,4-dichlorophenoxy)acetyl]piperazin-1-yl}acetyl)piperazine]	> 90
O=C(Cc1ccc(Cl)c(Cl)c1)N1CCN(CC(=O)N2CCN(C3CCC3)CC2)CC1 [Compound 546, 1-cyclobutyl-4-({4-[(3,4-dichlorophenyl)acetyl]piperazin-1-yl}acetyl)piperazine]	> 90
COc1ccc(CC(=O)N2CCN(CC(=O)N3CCN(C4CCC4)CC3)CC2)cc1OC [Compound 547, 1-cyclobutyl-4-({4-[(3,4-dimethoxyphenyl)acetyl]piperazin-1-yl}acetyl)piperazine]	> 90
COc1cc(CC(=O)N2CCN(CC(=O)N3CCN(C4CCC4)CC3)CC2)cc(OC)c1 [Compound 548, 1-cyclobutyl-4-({4-[(3,5-dimethoxyphenyl)acetyl]piperazin-1-yl}acetyl)piperazine]	> 90
O=C(Cc1cccc(F)c1)N1CCN(CC(=O)N2CCN(C3CCC3)CC2)CC1 [Compound 550, 1-cyclobutyl-4-({4-[(3-fluorophenyl)acetyl]piperazin-1-yl}acetyl)piperazine]	> 90
COc1cccc(OCC(=O)N2CCN(CC(=O)N3CCN(C4CCC4)CC3)CC2)c1 [Compound 551, 1-cyclobutyl-4-({4-[(3-methoxyphenoxy)acetyl]piperazin-1-yl}acetyl)piperazine]	> 90
COc1cccc(CC(=O)N2CCN(CC(=O)N3CCN(C4CCC4)CC3)CC2)c1 [Compound 552, 1-cyclobutyl-4-({4-[(3-methoxyphenyl)acetyl]piperazin-1-yl}acetyl)piperazine]	> 90
Cc1cccc(OCC(=O)N2CCN(CC(=O)N3CCN(C4CCC4)CC3)CC2)c1 [Compound 554, 1-cyclobutyl-4-({4-[(3-methylphenoxy)acetyl]piperazin-1-yl}acetyl)piperazine]	> 90
Cc1cccc(CC(=O)N2CCN(CC(=O)N3CCN(C4CCC4)CC3)CC2)c1 [Compound 555, 1-cyclobutyl-4-({4-[(3-methylphenyl)acetyl]piperazin-1-yl}acetyl)piperazine]	> 90
O=C(Cc1cccc(Oc2ccccc2)c1)N1CCN(CC(=O)N2CCN(C3CCC3)CC2)CC1 [Compound 556, 1-cyclobutyl-4-({4-[(3-phenoxyphenyl)acetyl]piperazin-1-yl}acetyl)piperazine]	> 90
